Results taken from PubChem BioAssay AID330 (DTP/NCI, 2004).
Several values for one entry are separate records, joined by “and”; a condition that tells them apart may be missing. Identical values can stand only once. Toxic doses and inconclusive results are not listed.

Test system: P388 leukemia ip, CD2F1 mice, survival T/C
Experiment: NCI In Vivo Anticancer Drug Screen. Data for tumor model P388 Leukemia (intraperitoneal) in CD2F1 (CDF1) mice
Settings: endpoint: median survival time, higher = longer survival
Outline: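 Mice carrying the transplanted tumor received test compound or vehicle. Survival was recorded in each group, and the value is the treated-group measurement divided by that of the vehicle-treated control group.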

[1] = dose: 100.0 mg/kg/injection, schedule: Q01DX001 (ip), vehicle: saline with Tween-80
[2] = dose: 200.0 mg/kg/injection, schedule: Q01DX001 (ip), vehicle: saline with Tween-80
[3] = dose: 100.0 mg/kg/injection, schedule: Q04DX003 (ip), vehicle: saline with Tween-80
[4] = dose: 200.0 mg/kg/injection, schedule: Q04DX003 (ip), vehicle: saline with Tween-80
[5] = dose: 50.0 mg/kg/injection, schedule: Q01DX009 (ip), vehicle: saline
[6] = dose: 100.0 mg/kg/injection, schedule: Q01DX009 (ip), vehicle: saline
[7] = dose: 50.0 mg/kg/injection, schedule: Q01DX009 (ip), vehicle: Klucel (hydroxypropylcellulose) (HPC)
[8] = dose: 100.0 mg/kg/injection, schedule: Q01DX009 (ip), vehicle: Klucel (hydroxypropylcellulose) (HPC)
[9] = dose: 50.0 mg/kg/injection, schedule: Q01DX005 (ip), vehicle: saline with Tween-80
[10] = dose: 100.0 mg/kg/injection, schedule: Q01DX005 (ip), vehicle: saline with Tween-80
[11] = dose: 200.0 mg/kg/injection, schedule: Q01DX005 (ip), vehicle: saline with Tween-80
[12] = dose: 100.0 mg/kg/injection, schedule: Q01DX001 (ip), vehicle: Klucel (hydroxypropylcellulose) (HPC)
[13] = dose: 200.0 mg/kg/injection, schedule: Q01DX001 (ip), vehicle: Klucel (hydroxypropylcellulose) (HPC)
[14] = dose: 400.0 mg/kg/injection, schedule: Q01DX001 (ip), vehicle: Klucel (hydroxypropylcellulose) (HPC)

## CCCCCCCCCCCCCCCC(=O)Nc1cccc2c[n+](CC(=O)c3ccc(NC(=O)CCC(=O)OC)cc3)ccc12
[1]
  T/C: 90 % of control
[2]
  T/C: 86 % of control
dose: 400.0 mg/kg/injection, schedule: Q01DX001 (ip), vehicle: saline with Tween-80
  T/C: 109 % of control

## CN1C2Cc3cc4c(cc3[C@@]23Cc2ccc5c(c2[C@@H]1O3)OCO5)OCO4 (stereo not given in full)
dose: 8.0 mg/kg/injection, schedule: Q01DX005 (ip), vehicle: Klucel (hydroxypropylcellulose) (HPC)
  T/C: 94 % of control
dose: 16.0 mg/kg/injection, schedule: Q01DX005 (ip), vehicle: Klucel (hydroxypropylcellulose) (HPC)
  T/C: 109 % of control
dose: 32.0 mg/kg/injection, schedule: Q01DX005 (ip), vehicle: Klucel (hydroxypropylcellulose) (HPC)
  T/C: 94 % of control
dose: 64.0 mg/kg/injection, schedule: Q01DX005 (ip), vehicle: Klucel (hydroxypropylcellulose) (HPC)
  T/C: 98 % of control

## C=C1C(=O)CC2C3C1C2(C)CCC(OC(C)=O)C3(C)C (stereo not given)
dose: 5.5 mg/kg/injection, schedule: Q01DX005 (ip), vehicle: Klucel (hydroxypropylcellulose) (HPC)
  T/C: 93 % of control
dose: 11.0 mg/kg/injection, schedule: Q01DX005 (ip), vehicle: Klucel (hydroxypropylcellulose) (HPC)
  T/C: 93 % of control
dose: 22.0 mg/kg/injection, schedule: Q01DX005 (ip), vehicle: Klucel (hydroxypropylcellulose) (HPC)
  T/C: 100 % of control
dose: 44.0 mg/kg/injection, schedule: Q01DX005 (ip), vehicle: Klucel (hydroxypropylcellulose) (HPC)
  T/C: 103 % of control

## C/C(=C/c1cc2c(cc1Br)OCO2)[N+](=O)[O-]
[3]
  T/C: 108 % of control
[4]
  T/C: 118 % of control

## COc1ccc(NS(=O)(=O)c2ccc(NC(=O)NCCCl)cc2)nn1
dose: 25.0 mg/kg/injection, schedule: Q01DX005 (ip), vehicle: Klucel (hydroxypropylcellulose) (HPC)
  T/C: 98 % of control
dose: 50.0 mg/kg/injection, schedule: Q01DX005 (ip), vehicle: Klucel (hydroxypropylcellulose) (HPC)
  T/C: 98 % of control
dose: 200.0 mg/kg/injection, schedule: Q01DX005 (ip), vehicle: Klucel (hydroxypropylcellulose) (HPC)
  T/C: 98 % of control

## NC(N)=O
dose: 12.5 mg/kg/injection, schedule: Q01DX009 (ip), vehicle: saline
  T/C: 100 % of control
dose: 25.0 mg/kg/injection, schedule: Q01DX009 (ip), vehicle: saline
  T/C: 105 % of control
[5]
  T/C: 105 % of control
[6]
  T/C: 102 % of control
dose: 200.0 mg/kg/injection, schedule: Q01DX009 (ip), vehicle: saline
  T/C: 100 % of control
dose: 400.0 mg/kg/injection, schedule: Q01DX009 (ip), vehicle: saline
  T/C: 98 % of control

## C=CCOC(=O)OCCCO
dose: 60.0 mg/kg/injection, schedule: Q01DX005 (ip), vehicle: saline
  T/C: 105 % of control
dose: 120.0 mg/kg/injection, schedule: Q01DX005 (ip), vehicle: saline
  T/C: 99 % of control

## CCOC1NC(=O)Oc2ccccc21 (stereo not given)
dose: 3.12 mg/kg/injection, schedule: Q01DX005 (ip), vehicle: Klucel (hydroxypropylcellulose) (HPC)
  T/C: 100 % of control
dose: 6.25 mg/kg/injection, schedule: Q01DX005 (ip), vehicle: Klucel (hydroxypropylcellulose) (HPC)
  T/C: 96 % of control
dose: 12.5 mg/kg/injection, schedule: Q01DX005 (ip), vehicle: Klucel (hydroxypropylcellulose) (HPC)
  T/C: 103 % of control and 105 % of control
dose: 12.5 mg/kg/injection, schedule: Q01DX009 (ip), vehicle: Klucel (hydroxypropylcellulose) (HPC)
  T/C: 96 % of control
dose: 25.0 mg/kg/injection, schedule: Q01DX009 (ip), vehicle: Klucel (hydroxypropylcellulose) (HPC)
  T/C: 100 % of control and 105 % of control
[7]
  T/C: 100 % of control and 103 % of control (2×)
dose: 72.0 mg/kg/injection, schedule: Q01DX005 (ip), vehicle: Klucel (hydroxypropylcellulose) (HPC)
  T/C: 94 % of control
[8]
  T/C: 108 % of control and 109 % of control and 113 % of control
dose: 120.0 mg/kg/injection, schedule: Q01DX005 (ip), vehicle: Klucel (hydroxypropylcellulose) (HPC)
  T/C: 102 % of control
dose: 400.0 mg/kg/injection, schedule: Q01DX009 (ip), vehicle: Klucel (hydroxypropylcellulose) (HPC)
  T/C: 200 % of control

## Clc1c2c(c(Cl)c3c1=Nc1ccc4ccccc4c1S3)=Nc1ccc3ccccc3c1S2
[3]
  T/C: 107 % of control
[4]
  T/C: 113 % of control
dose: 400.0 mg/kg/injection, schedule: Q04DX003 (ip), vehicle: saline with Tween-80
  T/C: 115 % of control

## N#CC(C(=O)C(=O)Nc1cccc(C(F)(F)F)c1)c1c(Cl)cccc1Cl (stereo not given)
[9]
  T/C: 98 % of control
[10]
  T/C: 100 % of control
[11]
  T/C: 100 % of control

## CCOC1(C)OC2OC(COC(C)=O)C(OC(C)=O)C(OC(N)=O)C2O1 (stereo not given)
[9]
  T/C: 97 % of control
[10]
  T/C: 92 % of control
[11]
  T/C: 92 % of control

## CC1(C)O[P+]2(OC(C)(C)c3ccccc32)c2ccccc21
dose: 100.0 mg/kg/injection, schedule: Q04DX002 (ip), vehicle: Klucel (hydroxypropylcellulose) (HPC)
  T/C: 96 % of control
dose: 200.0 mg/kg/injection, schedule: Q04DX002 (ip), vehicle: Klucel (hydroxypropylcellulose) (HPC)
  T/C: 97 % of control
dose: 400.0 mg/kg/injection, schedule: Q04DX002 (ip), vehicle: Klucel (hydroxypropylcellulose) (HPC)
  T/C: 96 % of control

## CC(c1ccccc1)[P+](c1ccccc1)(c1ccccc1)c1ccccc1 (stereo not given)
dose: 0.78 mg/kg/injection, schedule: Q01DX009 (ip), vehicle: saline
  T/C: 112 % of control and 93 % of control
dose: 1.56 mg/kg/injection, schedule: Q01DX009 (ip), vehicle: saline
  T/C: 109 % of control and 118 % of control
dose: 3.13 mg/kg/injection, schedule: Q01DX009 (ip), vehicle: saline
  T/C: 118 % of control and 121 % of control

## CC1(C)CCC23CCC4(C)C(CCC5C6(C)CCC(O)C(C)(C)C6CCC54C)C2C1OC3 (stereo not given)
[7]
  T/C: 87 % of control
[8]
  T/C: 87 % of control
dose: 200.0 mg/kg/injection, schedule: Q01DX009 (ip), vehicle: Klucel (hydroxypropylcellulose) (HPC)
  T/C: 89 % of control

## COC(=O)NN(C(=O)OC)C12CCCCC1N(C(=O)OC)N(C(=O)OC)c1c2ccc2cc(OC)ccc12 (stereo not given)
[12]
  T/C: 96 % of control
[13]
  T/C: 92 % of control
[14]
  T/C: 91 % of control

## CCC(C)N(CCNc1cc(OC)cc2cccnc12)CC(C)C (stereo not given)
dose: 12.5 mg/kg/injection, schedule: Q01DX005 (ip), vehicle: saline
  T/C: 104 % of control
dose: 25.0 mg/kg/injection, schedule: Q01DX005 (ip), vehicle: saline
  T/C: 104 % of control
dose: 50.0 mg/kg/injection, schedule: Q01DX005 (ip), vehicle: saline
  T/C: 101 % of control and 95 % of control

## CN1C(C)(C)CC(C(=O)c2ccccc2)(c2ccccc2)CC1(C)C
dose: 50.0 mg/kg/injection, schedule: Q01DX005 (ip), vehicle: saline + Tween-80 + alcohol
  T/C: 107 % of control
dose: 100.0 mg/kg/injection, schedule: Q01DX005 (ip), vehicle: saline + Tween-80 + alcohol
  T/C: 100 % of control

## O=c1nc(-c2ccc3c(c2)OCO3)sc(=O)[nH]1
dose: 50.0 mg/kg/injection, schedule: Q01DX009 (ip), vehicle: saline with Tween-80
  T/C: 111 % of control
dose: 100.0 mg/kg/injection, schedule: Q01DX009 (ip), vehicle: saline with Tween-80
  T/C: 107 % of control
dose: 200.0 mg/kg/injection, schedule: Q01DX009 (ip), vehicle: saline with Tween-80
  T/C: 112 % of control

## O=c1[nH]c2c(=O)[nH][nH]c(=O)c2[nH]c1=O
dose: 15.0 mg/kg/injection, schedule: Q01DX005 (ip), vehicle: saline with Tween-80
  T/C: 103 % of control
dose: 30.0 mg/kg/injection, schedule: Q01DX005 (ip), vehicle: saline with Tween-80
  T/C: 100 % of control
dose: 60.0 mg/kg/injection, schedule: Q01DX005 (ip), vehicle: saline with Tween-80
  T/C: 99 % of control and 105 % of control

## O=C(c1ccccc1)C(CN1CCOCC1)CN1CCOCC1
[5]
  T/C: 119 % of control
[6]
  T/C: 116 % of control

## COC(=O)CC(c1ccccc1)C1(c2ccc3c(c2)OCO3)SCCCS1 (stereo not given)
[1]
  T/C: 92 % of control
[2]
  T/C: 90 % of control

## O=C(S)CC1(O)CCCCC12OC2c1ccccc1 (stereo not given)
[12]
  T/C: 99 % of control
[13]
  T/C: 104 % of control
[14]
  T/C: 103 % of control
